Laboratory results reported in PubChem BioAssay AID248 (DTP/NCI, 2004).
Several values for one entry are separate records, joined by “and”; a condition that tells them apart may be missing. Equal entries are not always repeated. Inconclusive results and toxic doses are left out. No stated cut-off is given here; in the data, active means T/C of 150% or more; inactive means T/C below 125%.

Tested on: L1210 leukemia ip in BDF1 mice, survival T/C
Assay: NCI In Vivo Anticancer Drug Screen. Data for tumor model L1210 Leukemia (intraperitoneal) in B6D2F1 (BDF1) mice
Settings: endpoint: mean survival time, higher = longer survival
Method in brief: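 Transplantable tumor model; survival measured in treated vs vehicle control mice. Value = treated/control.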

[1] = dose: 100.0 mg/kg/injection, schedule: Q04DX003 (ip), vehicle: Klucel (hydroxypropylcellulose) (HPC)
[2] = dose: 200.0 mg/kg/injection, schedule: Q04DX003 (ip), vehicle: Klucel (hydroxypropylcellulose) (HPC)
[3] = dose: 400.0 mg/kg/injection, schedule: Q04DX003 (ip), vehicle: Klucel (hydroxypropylcellulose) (HPC)
[4] = dose: 100.0 mg/kg/injection, schedule: Q01DX009 (ip), vehicle: Klucel (hydroxypropylcellulose) (HPC)
[5] = dose: 200.0 mg/kg/injection, schedule: Q01DX009 (ip), vehicle: Klucel (hydroxypropylcellulose) (HPC)
[6] = dose: 400.0 mg/kg/injection, schedule: Q01DX009 (ip), vehicle: Klucel (hydroxypropylcellulose) (HPC)
[7] = dose: 100.0 mg/kg/injection, schedule: Q04DX003 (ip), vehicle: saline with Tween-80
[8] = dose: 200.0 mg/kg/injection, schedule: Q04DX003 (ip), vehicle: saline with Tween-80
[9] = dose: 400.0 mg/kg/injection, schedule: Q04DX003 (ip), vehicle: saline with Tween-80
[10] = dose: 100.0 mg/kg/injection, schedule: Q04DX002 (ip), vehicle: Klucel (hydroxypropylcellulose) (HPC)
[11] = dose: 200.0 mg/kg/injection, schedule: Q04DX002 (ip), vehicle: Klucel (hydroxypropylcellulose) (HPC)
[12] = dose: 400.0 mg/kg/injection, schedule: Q04DX002 (ip), vehicle: Klucel (hydroxypropylcellulose) (HPC)
[13] = dose: 50.0 mg/kg/injection, schedule: Q01DX009 (ip), vehicle: saline with Tween-80
[14] = dose: 100.0 mg/kg/injection, schedule: Q01DX009 (ip), vehicle: saline with Tween-80
[15] = dose: 100.0 mg/kg/injection, schedule: Q04DX003 (ip), vehicle: saline
[16] = dose: 200.0 mg/kg/injection, schedule: Q04DX003 (ip), vehicle: saline
[17] = dose: 400.0 mg/kg/injection, schedule: Q04DX003 (ip), vehicle: saline

Measured: T/C

CC(=O)C(CCC(=O)O)(CCC(=O)O)c1ccccc1
inactive: dose: 30.0 mg/kg/injection, schedule: Q01DX Z (ip), vehicle: other 100 % of control | dose: 60.0 mg/kg/injection, schedule: Q01DX Z (ip), vehicle: other 101 % of control | [1] 92 % of control | dose: 120.0 mg/kg/injection, schedule: Q01DX Z (ip), vehicle: other 95 % of control | [2] 97 % of control | dose: 240.0 mg/kg/injection, schedule: Q01DX Z (ip), vehicle: other 95 % of control | [3] 102 % of control

S=c1[nH]c(=S)c2[nH]c(=S)[nH]c2[nH]1
inactive: [4] 91 % of control | [5] 93 % of control | [6] 95 % of control

N/C=C(/NC(=O)c1ccccc1C(N)=O)C(=O)O
inactive: dose: 75.0 mg/kg/injection, schedule: Q01DX001 (ip), vehicle: saline 100 % of control | dose: 150.0 mg/kg/injection, schedule: Q01DX001 (ip), vehicle: saline 100 % of control | dose: 300.0 mg/kg/injection, schedule: Q01DX001 (ip), vehicle: saline 91 % of control

Fc1ccc(NC(=S)SCc2ccc(Cl)cc2)cc1F
inactive: [7] 102 % of control | [8] 91 % of control | [9] 102 % of control

Cc1cccnc1OCC(=O)O
inactive: [10] 101 % of control | [11] 104 % of control | [12] 93 % of control

CCCCC(CC)CCC(O)CCC(CC)CC (configuration not stated)
inactive: [1] 102 % of control | [2] 98 % of control | [3] 102 % of control

Cc1cc(N(CCOS(C)(=O)=O)CCOS(C)(=O)=O)ccc1C=Nc1ccc2ccccc2c1
inactive: dose: 13.3 mg/kg/injection, schedule: Q04DX003 (ip), vehicle: Klucel (hydroxypropylcellulose) (HPC) 116 % of control | dose: 20.0 mg/kg/injection, schedule: Q04DX003 (ip), vehicle: Klucel (hydroxypropylcellulose) (HPC) 108 % of control and 117 % of control | dose: 80.0 mg/kg/injection, schedule: Q04DX003 (ip), vehicle: Klucel (hydroxypropylcellulose) (HPC) 112 % of control

Cc1cc(OC(=O)Nc2ccc(Cl)cc2Cl)c(C)cc1Cl
inactive: dose: 12.5 mg/kg/injection, schedule: Q01DX009 (ip), vehicle: saline with Tween-80 95 % of control | dose: 25.0 mg/kg/injection, schedule: Q01DX009 (ip), vehicle: saline with Tween-80 91 % of control | [13] 91 % of control | [14] 98 % of control

COC(=O)CCNC(=O)C1CSC(C)(C)N1C=O (configuration not stated)
inactive: [15] 97 % of control | [16] 97 % of control | [17] 90 % of control

COC(=O)c1cc(NC(=O)c2ccccc2F)cc(C(=O)OC)c1
inactive: dose: 100.0 mg/kg/injection, schedule: Q01DX009 (ip), vehicle: carboxymethylcellulose (CMC) 88 % of control | dose: 200.0 mg/kg/injection, schedule: Q01DX009 (ip), vehicle: carboxymethylcellulose (CMC) 90 % of control | dose: 400.0 mg/kg/injection, schedule: Q01DX009 (ip), vehicle: carboxymethylcellulose (CMC) 91 % of control

CSC1OC(C(NC(=O)N(C)N=O)C(C)O)C(O)C(O)C1O (configuration not stated)
inactive: [15] 105 % of control | [16] 118 % of control

CC/C(=N/Nc1ccc([N+](=O)[O-])cc1[N+](=O)[O-])c1ccccc1
inactive: dose: 100.0 mg/kg/injection, schedule: Q01DX001 (ip), vehicle: other 96 % of control | dose: 200.0 mg/kg/injection, schedule: Q01DX001 (ip), vehicle: other 111 % of control | dose: 400.0 mg/kg/injection, schedule: Q01DX001 (ip), vehicle: other 91 % of control

CC(C)C1=CC23CCC4C(C)(C(=O)O)CCCC4(C)C2CC1C1C(=O)c2ccccc2C(=O)C13 (configuration not stated)
inactive: dose: 100.0 mg/kg/injection, schedule: Q01DX001 (ip), vehicle: saline 90 % of control | dose: 200.0 mg/kg/injection, schedule: Q01DX001 (ip), vehicle: saline 95 % of control | dose: 400.0 mg/kg/injection, schedule: Q01DX001 (ip), vehicle: saline 91 % of control

COc1cc(C)c2cccc(OC)c2n1
inactive: [4] 114 % of control | [1] 105 % of control | [5] 108 % of control | [2] 90 % of control | [6] 98 % of control | [3] 94 % of control

c1ccc(COCC[P+](c2ccccc2)(c2ccccc2)c2ccccc2)cc1
inactive: dose: 5.0 mg/kg/injection, schedule: Q01DX001 (ip), vehicle: saline 94 % of control | dose: 20.0 mg/kg/injection, schedule: Q01DX001 (ip), vehicle: saline 87 % of control

COc1ccc(N2CSC(=S)N(c3ccc(OC)cc3)C2)cc1
inactive: dose: 25.0 mg/kg/injection, schedule: Q01DX009 (ip), vehicle: saline 96 % of control | dose: 50.0 mg/kg/injection, schedule: Q01DX009 (ip), vehicle: saline 93 % of control | dose: 100.0 mg/kg/injection, schedule: Q01DX009 (ip), vehicle: saline 95 % of control | [17] 91 % of control

Cc1ccc(N2C(=O)CC(NC3CCCCC3)C2=O)cc1 (configuration not stated)
inactive: [4] 97 % of control | [5] 100 % of control | [6] 97 % of control

Cc1cccc(OCCOC(=O)Nc2ccc(C)cc2[N+](=O)[O-])c1
inactive: [13] 97 % of control | [14] 87 % of control | [7] 103 % of control | [8] 94 % of control | [9] 99 % of control

O=C(O)c1cocc1C(=O)O
inactive: [10] 91 % of control | [11] 91 % of control

c1ccc(C2=C(c3ccccc3)c3cccc4cccc2c34)cc1
inactive: dose: 100.0 mg/kg/injection, schedule: Q01DX001 (ip), vehicle: acetone 100 % of control | dose: 100.0 mg/kg/injection, schedule: Q01DX009 (ip), vehicle: acetone 87 % of control | [15] 94 % of control | dose: 200.0 mg/kg/injection, schedule: Q01DX001 (ip), vehicle: acetone 89 % of control | dose: 200.0 mg/kg/injection, schedule: Q01DX009 (ip), vehicle: acetone 96 % of control | [16] 97 % of control | dose: 400.0 mg/kg/injection, schedule: Q01DX001 (ip), vehicle: acetone 94 % of control | dose: 400.0 mg/kg/injection, schedule: Q01DX009 (ip), vehicle: acetone 87 % of control | [17] 92 % of control

c1ccc(Cc2ccccn2)nc1
inactive: dose: 100.0 mg/kg/injection, schedule: Q04DX003 (ip), vehicle: saline sonified 110 % of control | dose: 200.0 mg/kg/injection, schedule: Q04DX003 (ip), vehicle: saline sonified 104 % of control | dose: 400.0 mg/kg/injection, schedule: Q04DX003 (ip), vehicle: saline sonified 104 % of control

C=C(Br)CNC(=O)OCC
inactive: dose: 50.0 mg/kg/injection, schedule: Q04DX003 (ip), vehicle: saline 96 % of control | [15] 115 % of control | [16] 107 % of control

NC(=O)c1cncc(C(N)=O)c1
inactive: dose: 100.0 mg/kg/injection, schedule: Q04DX002 (ip), vehicle: saline 103 % of control | dose: 200.0 mg/kg/injection, schedule: Q04DX002 (ip), vehicle: saline 95 % of control | dose: 400.0 mg/kg/injection, schedule: Q04DX002 (ip), vehicle: saline 100 % of control

C1CCC2[N-]CC3CCCCC3[N-]CC3CCCCC3[N-]CC3CCCCC3[N-]CC2C1.CO.[Co+3] (configuration not stated)
inactive: [10] 110 % of control | [11] 103 % of control

CCOC(CN=Cc1cccc2ccccc12)OCC
inactive: [7] 95 % of control | [8] 93 % of control | [9] 95 % of control

Cc1ccc(NC(=O)OC/C=C/c2ccccc2)c([N+](=O)[O-])c1
inactive: [1] 90 % of control | [2] 93 % of control | [3] 93 % of control

COc1cc(/C=N/N=C(\N)N[N+](=O)[O-])cc(OC)c1OC
inactive: dose: 100.0 mg/kg/injection, schedule: Q01DX001 (ip), vehicle: saline with Tween-80 114 % of control | dose: 200.0 mg/kg/injection, schedule: Q01DX001 (ip), vehicle: saline with Tween-80 97 % of control | dose: 400.0 mg/kg/injection, schedule: Q01DX001 (ip), vehicle: saline with Tween-80 96 % of control

CCCCOC(=O)Nc1ccccc1OCC
inactive: [10] 109 % of control | [11] 106 % of control | [12] 98 % of control
